Among the data in a melting point compilation (Tetko et al.; mined from patent text by program, amines drawn as free bases though some values may be those of a salt) are melting point values, retold here.

Each structure is given as a SMILES string.

`O=C(Nc1ccc(Oc2cccc(Cl)c2)c(Cl)c1)c1ccccn1`: the melting point (commonly the temperature of the solid-liquid transition) lay in the range of 91.5 to 93.5 °C.

Molecule `O=C(Nc1ccc(S(=O)(=O)C(F)(F)F)cc1)Nn1cnc2ccccc2c1=O` had a melting point of 118 to 121 °C.

Take `CCCCNC(=S)Nc1cc(Cl)ccc1N1CCOCC1`: the melting point was 150 to 152 °C.

Turning to `CNC(=O)c1cc2c(Oc3ccc(-c4noc(C(F)(F)F)n4)cc3)cncc2s1`, the melting point is 174 to 176 °C.

`Cc1c2ccncc2c(C)c2c1[nH]c1ccc(O)cc12` yielded a melting point of 307 to 309 °C.

For the molecule `COCc1ccc(C(=O)NC(C#N)n2cccn2)cc1` (stereo unspecified), the melting point lay in the range of 155 to 157 °C.

On to `Cc1ccc2c3ccccc3n(CC(O)CN3CCNCC3c3ccc(Cl)c(Cl)c3)c2c1` (stereo unspecified), for which the melting point turned out to be 140 °C.

For `COC(=O)c1cc2nccnc2cc1NC(=O)OC(C)(C)C`, the melting point is 196 to 198 °C.

For the molecule `O=c1c2c[nH]c3c(c-2nn1-c1ccc(Cl)cc1)CN(CCc1ccccc1)CC3`, the melting point fell in the range of 256 to 259 °C.

The molecule `O=c1oc(-c2cccc(Cl)c2)ns1` had a melting point of 83 to 84.5 °C.

On to `NC(=O)C1CCN(c2c(Br)cncc2Br)CC1`, for which the melting point fell in the range of 158 to 160 °C.

For the molecule `COc1ccccc1-c1ccc(C(=O)N2Cc3cccn3Cc3ccccc32)cc1C`, the melting point lay within 133 to 135 °C.

Take `N#CC1=C(Nc2cccc(Cl)c2)CCC1`: the melting point fell in the range of 111 to 112 °C.

For the molecule `O=C(NCCCCCCCCc1ccccc1)c1cc(-c2cccc(C(F)(F)F)c2)cc(-c2cccc(C(F)(F)F)c2OCCCCc2nnn[nH]2)c1`, the melting point is 145 to 151 °C.

As for `CC(=O)N1N=C(c2ccc(N)cc2)c2cc(Br)ccc2CC1C` (stereo unspecified), the melting point was in the range of 205 to 208 °C.

For `CC(Sc1ncnc2[nH]cnc12)c1oc2ccc(Br)cc2c(=O)c1-c1ccccc1` (stereo unspecified), the melting point lay within 234 to 237 °C.

Take `CN(C)CCCCCOc1ccc(-c2nnc(CSCCOc3ccccc3)o2)cc1`: the melting point lay within 51 to 54 °C.

For the molecule `N#CCCNC(=O)c1cccc(-c2ccc3c(c2)C(c2cc(Cl)ccc2Cl)CC3)c1` (stereo unspecified), the melting point was in the range of 135 to 136 °C.

Take `C[C@@H](n1ncn(-c2ccc(-n3nccn3)cc2)c1=O)[C@](O)(Cn1cncn1)c1ccc(F)cc1F`: the melting point lay in the range of 213 to 215 °C.

On to `NC(=O)N1CCC(Oc2c(F)c(F)c(F)c(F)c2F)CC1`, for which the melting point fell in the range of 170 to 172 °C.

In the case of `CC(C(O)c1ccc2c(c1)CCCS2)N1CCC(n2c(=O)[nH]c3ccccc32)CC1` (stereo unspecified), the melting point lay in the range of 232 to 235 °C.

`CCOC(=O)Nc1cc(C(=O)NC(C)C)c(Cl)cc1F` showed a melting point of 127 to 130 °C.

For `O=C(NCCO)c1cnccn1`, the melting point is 125 °C.

For the molecule `CC(C)=CCOC(C)C1CC=C2C3=C(CCC21C)C1(C)CCC(O)C(C)(C)C1CC3` (stereo unspecified), the melting point is 117 to 120 °C.

Consider `CN(Cc1ccccc1)C(=O)Cn1c(=O)n(C)c2nc(-c3ccccc3)ncc21`, for which the melting point was in the range of 160 to 161 °C.

The molecule `CCOC(=O)c1cccc(CNC(=O)CCCCCNC(=O)OC(C)(C)C)c1O` gave a melting point of 120 to 121 °C.

Take `Cc1cccc(CC(=O)O)c1OCCCc1cn(-c2ccc(C(F)(F)F)nn2)nc1C(C)(C)C`: the melting point was 96 to 97 °C.

Turning to `NS(=O)(=O)c1cc2cc(O)ccc2s1`, the melting point was 192 to 194 °C.

Regarding `Nc1nc(N)c2c(I)nn(C3CC(O)C(CO)O3)c2n1` (stereo unspecified), the melting point was 154 °C.

For `Cc1ccc(C(=O)Nc2ccc(-n3ccnc3C)c(C(F)(F)F)c2)cc1Nc1nccc(-c2cccnc2)n1`, the melting point lay in the range of 154 to 163 °C.

In turn, `CC1(C)Cc2c(c(O)cc3c2C(c2cccc(Br)c2)=NCC3(C)C)O1` registered a melting point of 230 to 235 °C.

`O=C(CC1CCN(Cc2ccccc2)CC1)c1ccc(N2CCCC2)cc1` displayed a melting point of 110 to 112 °C.

Consider `CC1(C)C(C=C(Cl)Cl)C1C(N)=O` (stereo unspecified), for which the melting point is 78 to 81 °C.

In the case of `C[C@@H](c1nc(-c2ccc(C#N)cc2)cs1)[C@](O)(Cn1cncn1)c1ccc(F)cc1F`, the melting point was 164 to 166 °C.

As to `CON(C)C(=O)c1cc(S(N)(=O)=O)sc1Cl`, the melting point lay within 223 to 225 °C.

Molecule `CCCCc1nc2ccccc2n1Cc1ccc(C(=O)O)cc1F` gave a melting point of 224 to 226 °C.

As to `O=C(NC(Cc1ccccc1)C(=O)O)c1cc2cc(F)ccc2[nH]1` (stereo unspecified), the melting point lay in the range of 125 to 127 °C.

In the case of `CC1(C)CCC(C)(C)c2cc(-c3cccc(-c4ccc(C(=O)O)cc4)c3O)ccc21`, the melting point was 121 °C.

For `CC(C)(CO)NC(=O)c1ccccc1-c1ccccc1`, the melting point is 38.5 to 40.5 °C.

Regarding `O=C1CCCN1CCCN=c1sc2ccccc2s1`, the melting point was 101 to 104 °C.

As to `CC1NC(=O)NN=C1c1ccccc1OCc1ccccc1` (stereo unspecified), the melting point fell in the range of 200 to 203 °C.

Consider `CSc1cc(-c2nc3ccccc3[nH]2)no1`, for which the melting point lay within 179 to 181 °C.

The molecule `CC(=O)Oc1nn(-c2ccc(C)cc2)c(=O)c2c1Nc1cc(Cl)ccc1C2` yielded a melting point of 238 to 240 °C.

Molecule `CC(C)c1c(C(=O)Nc2ccccc2)c(-c2ccccc2)c(-c2ccc(F)cc2)n1CC[C@@H]1C[C@H](CC(=O)OC(C)(C)C)OC(C)(C)O1` came in with a melting point of 140 to 142 °C.

The molecule `CCc1nc2c(C)cc(C)nc2n1Cc1ccc(C(c2ccccc2C)C(C(=O)O)C(=O)O)cc1` (stereo unspecified) came in with a melting point of 160 to 161 °C.

`COc1ccc(Cl)cc1C(CC(=O)O)c1ccccc1` (stereo unspecified) came in with a melting point of 144 °C.

`CN1CC[C@H](c2ccccc2)[C@H](O)C1` (relative stereo) displayed a melting point of 95 to 97 °C.

`COC(=O)CCCCN(CCc1cc(-c2ccc(F)cc2F)ccc1OCc1ccc(-c2ccc(C(F)(F)F)cc2)cc1)Cc1ccc(C(=O)OC)cc1` showed a melting point of over 240 °C.

Take `CC(=NC(C)c1ccc(Cl)cc1Cl)c1ccc(Cl)cc1Cl` (stereo unspecified): the melting point is 77 to 85 °C.

`Cc1oc(-c2ccccc2)nc1COc1ccc(CON=C(CCCCC(N)=O)c2ccccc2)cc1` showed a melting point of 95 to 96 °C.

Consider `O=C(c1ccccc1)c1cccnc1-c1nc(Nc2ccc(Cl)cc2)c2ccccc2n1`, for which the melting point was 190 to 192 °C.

On to `N#CC(=C(C#N)c1ccc(F)cc1)c1ccc(F)cc1`, for which the melting point lay within 194 to 195 °C.

`O=C(O)Cc1cccc(Cn2cc(C3c4ccccc4C=Cc4ccccc43)c(=S)[nH]c2=O)c1` returned a melting point of 135 to 137 °C.

As to `COC(=O)C(OC(=O)c1ccc(C(=O)O)cc1)C(=O)OC`, the melting point lay in the range of 104 to 107 °C.

Turning to `O=C(Cc1ccsc1)Nc1ncc(Cl)cc1Cl`, the melting point was in the range of 159 to 160 °C.

Turning to `Fc1cccc2c(NCCc3ccc(Oc4ccc(C(F)(F)F)cn4)cc3)ncnc12`, the melting point was 152 °C.

As to `O=c1[nH]c2cc(-n3cccc3)c([N+](=O)[O-])cc2n(C2CCCCC2)c1=O`, the melting point amounted to 197 °C.

With `N#Cc1ccc(OCc2ccsc2)cc1OC(C(=O)O)c1ccccc1Br` (racemic), the melting point is 89 to 98 °C.

As to `Cn1c(C#N)c(-c2ccc(F)cc2)c2ncccc2c1=O`, the melting point was 258 to 259 °C.

On to `C[C@@H](NS(=O)(=O)c1ccc(Cl)cc1)[C@](O)(Cn1cncn1)c1ccc(Cl)cc1Cl` (relative stereo), for which the melting point is 160 to 165 °C.

In turn, `CC1(C)CS(=O)(=O)c2sc(S(N)(=O)=O)cc2C1O` (stereo unspecified) returned a melting point of 172 to 174 °C.

`O=C(NCc1ccccc1)c1ccc2cnccc2n1`: the melting point lay in the range of 113 to 115 °C.

In the case of `COc1ccc(-c2nc3ccc(OC)cc3s2)cc1`, the melting point was 162 to 164 °C.

For the molecule `COC(=O)COc1ccc(Cl)c2c1c1c(n2Cc2ccccc2)CCCC1C(N)=O` (stereo unspecified), the melting point was in the range of 185 to 186 °C.

`c1ccc(-c2cnc(Nc3ccncn3)s2)cc1` returned a melting point of over 250 °C.

As for `O=C(O)c1cc(Br)c(O)cc1O`, the melting point was in the range of 210 to 212 °C.

`CN1C(C(=O)Nc2ccccc(O)c2=O)=C(O)c2ccccc2S1(=O)=O` registered a melting point of 294 to 296 °C.

On to `CC1(C)Oc2ccc(S(=O)(=O)c3ccc(O)cc3)cc2[C@@H](Oc2ccc(O)nn2)[C@]1(C)O`, for which the melting point was over 200 °C.

Take `Cc1nc2cc3c(cc2c(=O)[nH]1)C(N(C)c1ccc(C(=O)NC(CCc2nnnn2CC(=O)O)C(=O)O)c(F)c1)CC3` (mixture of isomers): the melting point was 232 to 235 °C.

Take `CC(=O)NC(CO)C(=O)c1ccccc1` (stereo unspecified): the melting point lay within 115 to 117 °C.

In turn, `Cc1c(C(=O)NCC(=O)O)oc2cc(-c3ccc(Cn4c(C)nc5ccccc54)cc3)ccc12` gave a melting point of 248 to 250 °C.

With `O=C(O)c1nc(-c2ccc(Cl)cc2Cl)c(-c2ccccc2)s1`, the melting point was 105 °C.

For the molecule `CC1(C)c2cc(OS(C)(=O)=O)ccc2OC1N1CCCCC1` (stereo unspecified), the melting point is 97 to 98 °C.

For the molecule `COc1ccc(C(C)=Cc2ccncc2)c2c1OC1(CCCC1)C2`, the melting point was 85 to 87 °C.

The molecule `CCCCCCc1cn(C)cc(-c2cccc(C(F)(F)F)c2)c1=O` came in with a melting point of 89.5 to 90.5 °C.

The molecule `COc1ccc(S(=O)(=O)N(C)C)c(N)c1` had a melting point of 59 to 64 °C.

For the molecule `COc1ccc(S(=O)(=O)N(Cc2ccccc2)[C@H](CC(C)C)C(=O)NO)cc1`, the melting point is 48 to 52 °C.

Consider `CCN(CC)C(=S)c1c(C)cccc1[Si](C)(C)C`, for which the melting point lay in the range of 82 to 83 °C.

`Nc1nc(NCCOc2ccc(O)cc2)nc2nc(-c3ccco3)nn12`: the melting point was 266 to 268 °C.

`CNC(=O)c1ccccc1Nc1nc(Nc2cc3c(cc2OC)CCN(CC(=O)N(C)C)CC3)ncc1Cl` registered a melting point of 83 to 89 °C.

For the molecule `COc1ccc(Cc2nc3cc(Cl)cc(CC=NO)c3o2)cc1OC1CCCC1`, the melting point was 149 to 151 °C.

On to `CCCNC(=S)NS(=O)(=O)c1cc2c(cc1OC)OCC(NC(=O)c1cc(F)ccc1OC)C2` (stereo unspecified), for which the melting point is 172 to 173 °C.

`OC(COc1cccc(-c2cc[nH]n2)c1)CN1CCN(c2ccc(Cl)cc2)CC1` (stereo unspecified) registered a melting point of 152 to 153 °C.

`CCN(CC)c1ncnc2c1ncn2C1CC(F)C(CO)O1` (stereo unspecified): the melting point fell in the range of 114 to 115 °C.

For the molecule `CC(C)(C)c1cc(C=Cc2ccccc2NC(=O)NCc2ccccn2)cc(C(C)(C)C)c1O`, the melting point lay in the range of 207 to 210 °C.

In the case of `FC(F)(F)c1cccc(Nc2ccccc2-c2n[nH]c(=S)[nH]2)c1`, the melting point lay within 275 to 279 °C.
